Laboratory results taken from EP3851117A1, “INHIBITORS OF INTRACELLULAR BACTERIAL GROWTH AND PERSISTENCE AS ANTIBIOTICS” (Consejo Superior de Investigaciones Científicas (CSIC), priority 2020, dated 2021).
Values after ≈ are worked out from the molar mass of the structure shown. “Also recorded” adds a separate entry of the source.

Legend:
[1] = system: S. Typhimurium wild-type bacteria; experiment: Antibiotic susceptibility with MIC strips (E-test) on PCN agar plates with 0.01% YE; format: cell-based; settings: for MIC: Salmonella enterica, TYPHIMURIUM; for susceptibility following the switch to acid pH: switch to acid pH (4.6), PBP3SAL expression
From the text: S. Typhimurium cultures grown in PCN 4.6 were normalized to an optical density at 600 nm (OD600) of 0.1 and diluted 1:10. One hundred twenty microliters of this dilution were spread onto PCN plates using glass beads. The assays were repeated at least in three independent biological replicates.

[2] = system: S. Typhimurium bacteria lacking PBP3 (ΔPBP3 mutant); experiment: as above; format: cell-based; settings: Salmonella enterica, pH 4.6, read-out: MIC value
Method: Antibiotic susceptibility was determined using MIC strips (MIC Test Strip; Liofilchem) in PCN agar plates containing 0.01% YE at neutral or acid pH 4.6. S. Typhimurium cultures grown in PCN 4.6 were normalized to an optical density at 600 nm (OD600) of 0.1 and diluted 1:10. One hundred twenty microliters of this dilution were spread onto PCN plates using glass beads. The assays were repeated at least in three independent biological replicates.

[3] = system: S. Typhimurium (wild-type); experiment: Spot dilution assay on PCN plates with antibiotic; format: cell-based; settings: MEC 5 µg/mL, ATM 0.125 µg/mL
Method: (§1) PCN plates for spot dilution assays were prepared by mixing 7.5 ml of sterile PCN medium (2x concentrated) at the desired pH and 7.5 ml of autoclaved agar (30 mg/mL). The mixture was supplemented with 0.01% (w/v) yeast extract (YE). Cultures were grown in PCN pH 4.6 medium overnight and adjusted to same optical density values. These cultures were serially 10-fold diluted. 5 µl of each dilution was spotted onto PCN plates with or without antibiotic added.

[4] = system: S. Typhimurium mutants lacking PBP3SAL; experiment: Spot dilution assay on PCN plates with antibiotic; format: cell-based; settings: pH 4.6
Method: as §1

[5] = system: intra-phagosomal S. Typhimurium lacking PBP3SAL in RAW 264.7 macrophages; experiment: Macrophage infection and colony-forming unit counting; format: cell-based; settings: 10 µg/mL added to infected macrophages; compared with bacteria lacking PBP3
Method: The murine macrophage line RAW 264.7 (400319, Cell Lines Service, CLS, https://clsgmbh.de/) was cultured in Dulbecco's modified Eagle's medium (DMEM) with 5% fetal bovine serum (FBS) and 4 mM glutamine in an incubator at 37°C in a 5% CO2 atmosphere. RAW 264.7 macrophages were seeded in 24-well plates (353047, Falcon) at a density of 2x10^5 cells/well and pre-cultured for 24 h before infection. Macrophages were activated with 2.5 ng/ml interferon-γ (315-05, Peprotech) 24 h prior infection. Culture medium was replaced by fresh medium without interferon-γ and infected with S. Typhimurium strains at a multiplicity of infection (MOI) of 10:1 during 10 min. Macrophages were washed with PBS supplemented with 0.5 mM MgCl2 and 0.9 mM CaCl2 (complete PBS) and extracellular non-phagocytosed bacteria were killed by incubation in medium containing gentamicin (100 µg/ml for 1 h, followed by 10 µg/ml for the remaining incubation). If indicated, aztreonam (ATM) (10 µg/mL) was added at 1 hpi. Infected macrophages were lysed at 1 and 8 hpi. Colony-forming units (CFU) were determined after two washes of the culture with complete PBS buffer, lysis with sterile solution containing 1% (w/v) Triton X 100 and 0.1% (w/v) sodium dodecyl sulfate (SDS) in PBS and plating on LB pH 7.0 or LB pH 4.6. The assays were repeated at least in three independent biological replicates.

[6] = system: S. Typhimurium bacteria lacking PBP3SAL; experiment: BALB/c mice challenge, bacterial load in spleen; format: in vivo; settings: intraperitoneal, every 24 h
Method: (§2) Groups of three 8-week-old female BALB/c mice were inoculated with the following isogenic strains: MD5064 (PBP2SAL::3xFlag PBP3SAL::3xFlag), MD5063 (ΔPBP2, ΔPBP2SAL), MD5544 (ΔPBP2 ΔPBP2SAL pPBP2SAL::PBP2), MD5542 (ΔPBP3, ΔPBP3SAL and ΔPBP3 ΔPBP3SAL pPBP3SAL::PBP3). The doses used were 2x10^3 CFU in 200 µl of sterile PBS. Along four days, mice received intraperitoneally every 24 h a regime consisting in 10 mg mecillinam (MEC) or 2.5 mg aztreonam (ATM) per animal in 200 µl of sterile water. Mice were sacrificed four days post inoculation and spleens homogenized in 5 ml of sterile PBS. Aliquots (100 µl) of 10-fold serial dilutions of the homogenates were cultured in LB pH 4.6 plates to quantify the number of viable S. Typhimurium. To detect PBPs in vivo, spleen extracts from three mice were prepared at 72 hpi as described previously (Dominguez-Bernal, G. et al. Mol Microbiol. 2004; 53: 1437-1449). The protocols used in the study were approved by the Consejería de Medio Ambiente de la Comunidad de Madrid (ref. PROEX 110/19).

[7] = system: S. Typhimurium mutant lacking PBP3; experiment: BALB/c mice challenge, bacterial load in spleen; format: in vivo; settings: intraperitoneal, every 24 h
Method: as §2

[8] = system: S. Typhimurium wild-type bacteria; experiment: BALB/c mice challenge, bacterial load in spleen; format: in vivo; settings: intraperitoneal, every 24 h
Method: as §2

[9] = system: S. Typhimurium mutant lacking PBP2SAL; experiment: Spot dilution assay on PCN plates with antibiotic; format: cell-based; settings: pH 4.6
Method: as §1

[10] = system: S. Typhimurium mutant lacking PBP2; experiment: Spot dilution assay on PCN plates with antibiotic; format: cell-based
Method: as §1

[11] = system: S. Typhimurium bacteria lacking PBP2SAL; experiment: BALB/c mice challenge, bacterial load in spleen; format: in vivo; settings: intraperitoneal, every 24 h
Method: as §2

[12] = system: S. Typhimurium mutant lacking PBP2; experiment: BALB/c mice challenge, bacterial load in spleen; format: in vivo; settings: intraperitoneal, every 24 h
Method: as §2

[13] = pH 4.6, PCN-0.01% yeast extract

C[C@H]1[C@H](NC(=O)/C(=N\OC(C)(C)C(=O)O)c2csc(N)n2)C(=O)N1S(=O)(=O)O [ATM, aztreonam]
MIC ([1]; pH 4.6): 0.125 µg/mL (≈ 0.287 µM) | MIC ([1]; pH 7.4): < 0.016 µg/mL | MIC [2]: 0.75 µg/mL (≈ 1.72 µM) | susceptibility (bacterial growth) [3, 13]: not at pH 4.6; also recorded: resistant | susceptibility (bacterial growth) ([3]; pH 7.4): inhibit bacterial growth; also recorded: susceptible | antimicrobial activity [4]: showed antimicrobial activity | susceptibility of intra-phagosomal bacteria [5]: more susceptible | bacterial loads [6]: significant decrease of bacterial loads | effect on bacterial loads [7]: lesser effect | load of bacteria in spleen [8]: did not result in a statistically significant decrease

CC1(C)S[C@@H]2[C@H](/N=C/N3CCCCCC3)C(=O)N2[C@H]1C(=O)O [MEC, mecillinam]
susceptibility (bacterial growth) [3, 13]: not at pH 4.6 | susceptibility (bacterial growth) ([3]; pH 7.4): inhibit bacterial growth | susceptibility [9]: does not alter susceptibility | susceptibility ([10]; pH 4.6): does not alter susceptibility | susceptibility ([10]; pH 7.4): resistant | bacterial loads [11]: significant decrease of bacterial loads | effect on bacterial loads [12]: lesser effect | load of bacteria in spleen [8]: did not result in a statistically significant decrease; also recorded: slightly effect of reduced viability

CO/N=C(\C(=O)N[C@@H]1C(=O)N2C(C(=O)O)=C(COC(C)=O)CS[C@H]12)c1csc(N)n1 [cefotaxime]
susceptibility following the switch to acid pH [1]: decreased susceptibility

CC(C)(O/N=C(\C(=O)N[C@@H]1C(=O)N2C(C(=O)[O-])=C(C[n+]3ccccc3)CS[C@H]12)c1csc(N)n1)C(=O)O [ceftazidime]
susceptibility following the switch to acid pH [1]: decreased susceptibility

CO/N=C(\C(=O)N[C@@H]1C(=O)N2C(C(=O)O)=C(COC(N)=O)CS[C@H]12)c1ccco1 [cefuroxime]
susceptibility following the switch to acid pH [1]: decreased susceptibility

CC(=O)OCC1=C(C(=O)O)N2C(=O)[C@@H](NC(=O)Cc3cccs3)[C@H]2SC1 [cephalotin]
susceptibility following the switch to acid pH [1]: decreased susceptibility
